From patent publication US11084795B2, “CFTR regulators and methods of use thereof” (The Regents of the University of California, priority 2015, dated 2021)
“Also recorded” adds a separate entry of the source.

How the values were obtained:
ΔF508-CFTR = target: T1, ΔF508-CFTR (Homo sapiens, UniProt P13569, DEL508-508); experiment: Short-circuit current in FRT cells expressing ΔF508-CFTR corrected with VX-809; type: cell-based; details: after overnight incubation with a corrector
T1 construct: expressed in transfected cells; host or cells: Fischer rat thyroid (FRT) cells
Description: FIGS. 9A-9E. Characterization of CFTR activation by CFTRact-J027. Short-circuit current measured in FRT cells expressing human wild-type CFTR (FIG. 9A) and ΔF508-CFTR (FIG. 9C) showing responses to indicated concentrations of forskolin (fsk), CFTRact-J027, and VX-770. The ΔF508-CFTR-expressing FRT cells were corrected with 3 μM VX-809 at 37° C. for 24 h before measurement. CFTRinh-172 (Inh-172, 10 μM) was added where indicated. FIG. 9B. CFTRact-J027 concentration-dependent activation of wild-type CFTR Cl^− current (S.E.; n=3 cultures). FIG. 9D. Short-circuit current in mouse colon showing responses to indicated concentrations of forskolin (fsk), CFTRact-J027, and CFTRinh-172. FIG. 9E. Assay of cAMP concentration in FRT cells measured following 10-min incubation with indicated concentrations of forskolin and 5 μM CFTRact-J027. Positive controls included forskolin (100 nM and 20 μM), and forskolin plus 3-isobutyl-1-methylxanthine (IBMX, 100 μM) (mean±SE, n=4-8).

[1] = Pharmacokinetics in mice (plasma LC/MS); type: in vivo, mouse
Description: (§1) Blood was collected at 15, 30, 60, 150, 240 and 360 min after treatment by orbital puncture and centrifuged at 5000 rpm for 15 min to separate plasma. Plasma samples (60 μL) were mixed with 300 μL acetonitrile and centrifuged at 13000 rpm for 20 min, and 90 μL of the supernatant was used for LC/MS. The solvent system consisted of a linear gradient from 5 to 95% acetonitrile over 16 min (0.2 ml/min flow). Mass spectra was acquired on a mass spectrometer (Waters 2695 and Micromass ZQ) using electrospray (+) ionization, mass ranging from 100 to 1500 Da, cone voltage 40 V. Calibration standards were prepared in plasma from untreated mice to which known amounts of CFTRact-J027 were added.
as §1, with “Pharmacokinetics. […] Blood” for “Blood”

[2] = system: CFTR at the ocular surface; experiment: Ocular surface potential difference (PD) in living mice; type: in vivo, mouse; details: wild-type mice, 1-10 μM
Description: Open-circuit transepithelial PD were measured continuously in anesthetized mice in response to serial perfusions of different solutions over the ocular surface, as described (21). Mice were anesthetized with Avertin (2,2,2-tribromoethanol, 125 mg/kg intraperitoneal, Sigma-Aldrich, St. Louis, Mo., USA), and core temperature was maintained at 37° C. using a heating pad. Eyes were oriented with the cornea and conjunctiva facing upward and exposed by retracting the eyelid with cross-action forceps. Solutions were isosmolar (320±10 mOsM; compositions provided in ref. 21) and contained 10μ[…] indomethacin to prevent CFTR activation by prostaglandins. The ocular surface was perfused at 6 mL/min through plastic tubing using a multireservoir gravity pinch-valve system (ALA Scientific, Westbury, N.Y., USA) and variable-flow peristaltic pump (medium flow model; Fisher Scientific, Fair Lawn, N.J., USA). A probe catheter was fixed 1 mm above the cornea using a micropositioner and a suction cannula was positioned 3 mm from the orbit. The measuring electrode was in contact to the perfusion catheter and connected to a high-impedance voltmeter (IsoMilivolt Meter; WPI). The reference electrode was grounded via a winged 21-gauge needle filled with isosmolar saline, and inserted subcutaneously in the abdomen. Measuring and reference electrodes consisted of Ag/AgCl with 3 M KCl agar bridges.
An open-circuit potential difference (PD) method developed in our lab was used to evaluate compound activity at the ocular surface in vivo, as depicted in FIG. 3A (21). Cl^− channel function was quantified by measuring PD during continuous perfusion of the ocular surface with a series of solutions that imposed a transepithelial Cl^− gradient and contained various channel agonists and/or inhibitors. The ocular surface was first perfused with isosmolar saline to record the baseline PD. Amiloride was then added to the perfusate, followed by exchange to a low Cl^− solution in which Cl^− with an impermeant anion, gluconate. These maneuvers allow for direct visualization of CFTR activation in response to addition of candidate CFTR activators.
Ocular surface potential difference measurements. Open-circuit transepithelial PD were measured continuously in anesthetized mice in response to serial perfusions of different solutions over the ocular surface, as described (21). Mice were anesthetized with Avertin (2,2,2-tribromoethanol, 125 mg/kg intraperitoneal, Sigma-Aldrich, St. Louis, Mo., USA), and core temperature was maintained at 37° C. using a heating pad. Eyes were oriented with the cornea and conjunctiva facing upward and exposed by retracting the eyelid with cross-action forceps. […]

tear fluid secretion = type: in vivo, mouse; details: wild-type mice; B074 100 μM, J027 and K089 50 μM, VX-770 10 μM, cholera toxin 0.1 μg/mL, forskolin 20 μM, IBMX 250 μM

T1 sequence (P13569 with tags, fused parts or gaps DEL508-508): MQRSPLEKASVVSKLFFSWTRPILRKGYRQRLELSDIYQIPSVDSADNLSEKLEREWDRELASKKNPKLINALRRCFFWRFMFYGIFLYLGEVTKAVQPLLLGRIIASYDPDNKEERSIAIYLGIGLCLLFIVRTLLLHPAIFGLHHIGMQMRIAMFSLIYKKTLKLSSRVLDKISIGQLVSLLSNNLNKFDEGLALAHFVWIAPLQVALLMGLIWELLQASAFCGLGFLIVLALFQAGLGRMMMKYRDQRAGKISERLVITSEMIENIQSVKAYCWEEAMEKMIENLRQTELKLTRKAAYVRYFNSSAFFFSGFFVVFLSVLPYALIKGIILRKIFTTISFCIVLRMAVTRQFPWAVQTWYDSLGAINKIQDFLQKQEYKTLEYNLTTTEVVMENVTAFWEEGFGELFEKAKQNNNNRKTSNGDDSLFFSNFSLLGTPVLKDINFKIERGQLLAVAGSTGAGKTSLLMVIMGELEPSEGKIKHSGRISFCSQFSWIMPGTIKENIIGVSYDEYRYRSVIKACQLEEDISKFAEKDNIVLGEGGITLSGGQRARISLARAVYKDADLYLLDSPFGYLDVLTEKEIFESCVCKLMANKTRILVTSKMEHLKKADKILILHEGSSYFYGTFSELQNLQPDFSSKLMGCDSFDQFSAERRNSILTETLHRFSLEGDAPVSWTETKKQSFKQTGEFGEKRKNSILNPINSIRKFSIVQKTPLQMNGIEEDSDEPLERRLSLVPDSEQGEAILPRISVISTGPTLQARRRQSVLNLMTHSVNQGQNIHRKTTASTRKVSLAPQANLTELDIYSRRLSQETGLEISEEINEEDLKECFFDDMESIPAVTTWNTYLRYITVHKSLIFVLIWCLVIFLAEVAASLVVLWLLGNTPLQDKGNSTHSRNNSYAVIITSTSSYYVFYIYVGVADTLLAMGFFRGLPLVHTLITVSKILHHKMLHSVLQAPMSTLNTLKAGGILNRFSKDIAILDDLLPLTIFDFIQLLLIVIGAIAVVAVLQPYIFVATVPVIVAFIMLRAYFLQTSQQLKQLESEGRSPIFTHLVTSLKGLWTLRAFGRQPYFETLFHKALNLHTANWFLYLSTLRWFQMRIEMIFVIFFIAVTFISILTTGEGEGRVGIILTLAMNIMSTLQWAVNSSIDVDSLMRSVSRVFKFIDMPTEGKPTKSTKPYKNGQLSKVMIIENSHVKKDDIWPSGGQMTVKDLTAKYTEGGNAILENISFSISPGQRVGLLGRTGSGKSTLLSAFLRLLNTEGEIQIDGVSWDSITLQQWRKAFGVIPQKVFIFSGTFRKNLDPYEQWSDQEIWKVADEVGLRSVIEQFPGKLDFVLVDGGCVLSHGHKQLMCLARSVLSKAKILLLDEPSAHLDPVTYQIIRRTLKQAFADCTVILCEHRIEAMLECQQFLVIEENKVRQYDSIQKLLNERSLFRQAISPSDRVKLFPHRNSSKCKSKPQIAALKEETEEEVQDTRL

SMILES: Nc1ccc([N+](=O)[O-])cc1-c1nc2ccccc2n(Cc2ccccc2)c1=O [CFTRact-J027, 3-(2-amino-5-nitrophenyl)-1-benzylquinoxalin-2(1H)-one]
- potentiation of ΔF508-CFTR (ΔF508-CFTR): substantially less potent than ivacaftor; also recorded: only a weak potentiator
- serum concentration at 150 min ([1]; 10 mg/kg ip): undetectable
- oral bioavailability ([1]; 10 mg/kg oral): very low bioavailability; also recorded: minimal bioavailability
- serum concentration at other time points ([1]; 10 mg/kg oral): undetectable
- half-life ([1]; female, CD1, mouse, serum, 10 mg/kg ip, read-out: serum elimination half-life): 16 min
- concentration at 30 min ([1]; female, CD1, mouse, serum, 10 mg/kg oral): 180 nM
- change in ocular surface PD [2]: large hyperpolarizations
- tear fluid secretion after single topical dose (tear fluid secretion): increased tear fluid secretion by approximately two-fold for at least four hours
